Results taken from patent publication US6001331A, “Method of imaging amyloid deposits” (Warner-Lambert Company, priority 1998, dated 1999).
Like-named read-outs stand apart in the source and are kept apart here.

Tests used:
[1] = target: Insulin amyloid aggregates; test: Competition assay with Thioflavin T (ThT) for binding to insulin amyloid aggregates, fluorescence 96-well plate; settings: 0.5 μM ThT, 2 μg per well fibrils, 25 mM sodium phosphate pH 6.0, room temperature
Method: Burke M. J. and Rougevie M. A., Cross-β Protein Structures. I. Insulin Fibrils. […] Briefly, lyophilized insulin protein powder dissolved at 10 mg/mL in 50 mM HCl was alternately heated to 95° C. and frozen in dry ice to form amyloid aggregates.
(§1) The ability of compounds of Formula I to compete with Thioflavin T (ThT) for binding to amyloid aggregates was measured using fluorescence in a 96-well fluorescence plate assay. As a compromise between sensitivity and signal and to facilitate comparisons between different amyloid fibrils, ThT is present at a concentration equal to the Kmapp of the particular amyloid fibril type and fibril concentrations yielding a similar fluorescence intensity are used. Insulin: 0.5 μM ThT, 2 μg per well. β(1-40): 20 μM ThT, 5 μg/well. All solutions are in 25 mM sodium phosphate buffer, pH 6.0, and the assay is performed at room temperature.
Using a multichannel pipettor, 100 μL of dilutions of the compound to be tested (0.001-30 μM final concentration in 3-fold steps) are placed in the bottom of Corning U-well polystyrene plates (Corning Company, Corning, N.Y.). 50 μL of ThT are then added to each well. The amyloid fibrils are then added to each well in a volume of 100 μL rapidly to mix the well contents. […] ThT dye blanks were used to correct for the minimal fluorescence background which are subtracted from all data.
(§2) Results are expressed as % maximal fluorescence (no competing compound). […]

[2] = target: T1, βA(1-40) amyloid aggregates (Homo sapiens, UniProt P05067); test: Competition assay with Thioflavin T (ThT) for binding to β(1-40) amyloid aggregates, fluorescence 96-well plate
T1 construct: lyophilized β(1-40) protein powder (which may be purchased from BACHEM); purchased BACHEM
Description: Amyloid aggregates containing β(1-40) protein can also be made by methods well known to those skilled in the art. See, for example, Burdick D., Soreghan B., Kwon M., Kosmoski J., Knauer M., Henschen A., Yates J., Cotman C., and Glabe C. Assembly and aggregation properties of synthetic Alzheimer's A4/β amyloid peptide analogs. J. Biol. Chem., 267:546-554 (1992), which is hereby incorporated by reference. Briefly, lyophilized β(1-40) protein powder (which may be purchased from BACHEM) was dissolved at 10 mg/mL in hexafluoro-2-propanol and subsequently diluted to 500 μg/mL in 25 mM sodium phosphate buffer, pH 6 to induce the α-helix to β-sheet transition resulting in aggregate formation.
as §1
Using a multichannel pipettor, 100 μL of dilutions of the compound to be tested (0.001-30 μM final concentration in 3-fold steps) are placed in the bottom of Corning U-well polystyrene plates (Corning Company, Corning, N.Y.). 50 μL of ThT are then added to each well. The amyloid fibrils are then added to each well in a volume of 100 μL rapidly to mix the well contents. The plates are read within 5 to 30 minutes in a Millipore Cytofluor 2350 96-well fluorescence plate reader using an excitation filter of 440 nm (20 nm bandpass) and an emission filter of 485 nm (20 nm bandpass). ThT dye blanks were used to correct for the minimal fluorescence background which are subtracted from all data.
as §2

[3] = 20 μM ThT, 5 μg/well fibrils, 25 mM sodium phosphate pH 6.0, room temperature, read-out: βA(1-40), IC50

T1 sequence (P05067 672-711 limits assumed): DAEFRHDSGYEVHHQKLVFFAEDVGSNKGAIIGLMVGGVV

Compound | IC50 [1] [nM] | IC50 [2, 3] [nM] | IC50 [2] [nM]
CN(C)c1ccc(/C=C/c2[s+]c3ccc4ccccc4c3n2C)cc1 [Example 8, (E)-2-[2-(4-Dimethylaminophenyl)vinyl]-1-methylnaphtho[1,2-d]thiazol-3-ium iodide] | 53 | 210 | 
CCCCCCC[n+]1c(/C=C/c2ccc(N(CCCC)CCCC)cc2)sc2ccccc21 [Example 45, (E)-2-[2-(4-Dibutylaminophenyl)vinyl]-3-heptylbenzothiazol-3-ium iodide] | 90 | 600 | 
CN(C)c1ccc(/C=C/c2sc3ccccc3[n+]2C/C=C/c2ccccc2)cc1 [Example 32, (E,E)-2-[2-(4-Dimethylaminophenyl)vinyl]-3-(3-phenylallyl)benzothiazol-3-ium bromide] | 80 |  | 
CN(C)c1ccc(/C=C/c2sc3ccccc3[n+]2Cc2cccc(C(=O)c3ccccc3)c2)cc1 [Example 29, (E)-3-(3-Benzoylbenzyl)-2-[2-(4-dimethylaminophenyl)vinyl]benzothiazol-3-ium bromide] | 130 |  | 230
CN(C)c1ccc(/N=N/c2nc3c(ccc4ccccc43)s2)c2ccccc12 [Example 52, Dimethyl[4-(naphtho[1,2-d]thiazol-2-ylazo)naphthalen-1-yl]amine] | 16000 |  | 
CN(C)c1ccc(/N=N/c2nc3ccccc3s2)cc1 [Example 47, [4-(Dimethylamino)phenylazo]benzothiazole] |  | 22000 | 
CN(C)c1ccc(/C=C/c2sc3ccccc3[n+]2Cc2ccccc2-c2ccccc2)cc1 [Example 28, (E)-3-Biphenyl-2-ylmethyl-2-[2-(4-dimethylaminophenyl)vinyl]benzothiazol-3-ium bromide] | 80 |  | 
CN(C)c1ccc(/C=C/c2sc3ccccc3[n+]2CCCCCc2ccccc2)cc1 [Example 36, (E)-2-[2-(4-Dimethylaminophenyl)vinyl]-3-(5-phenylpentyl)benzothiazol-3-ium iodide] |  | 170 | 
CN(C)c1ccc(/C=C/c2nc3ccc(N(C)C)cc3s2)cc1 [Example 5, (E)-{2-[2-(4-Dimethylaminophenyl)vinyl]benzothiazol-6-yl}dimethylamine] |  | > 100000 | 
Cc1ccc2sc(/C=C/c3ccc(N(C)C)cc3)nc2c1 [Example 3, (E)-Dimethyl-{4-[2-(5-methylbenzothiazol-2-yl)vinyl]phenyl}amine] | 900 |  | 
Cc1ccc2nc(/C=C/c3ccc(N(C)C)cc3)sc2c1 [Example 4, (E)-Dimethyl-{4-[2-(6-methylbenzothiazol-2-yl)vinyl]phenyl}amine] | 1500 |  | 
CN(C)c1ccc(/C=C/c2sc3ccccc3[n+]2CCCCOc2ccccc2)cc1 [Example 35, (E)-2-[2-(4-Dimethylaminophenyl)vinyl]-3-(4-phenoxybutyl)benzothiazol-3-ium iodide] |  | 170 | 

The next lines start with results.

IC50 [1] [nM] | IC50 [2, 3] [nM] | Compound | IC50 [2] [nM]
120 | 120 | CN(C)c1ccc(/C=C/c2sc3cc4ccccc4cc3[n+]2C)cc1 [Example 23, (E)-2-[2-(4-Dimethylaminophenyl)vinyl]-3-methylnaphtho[2,3-d]thiazol-3-ium iodide] | 
 | 300 | COc1ccc2c(c1)sc(/C=C/c1ccc(N(C)C)cc1)[n+]2C [Example 19, (E)-2-[2-(4-Dimethylaminophenyl)vinyl]-6-methoxy-3-methylbenzothiazol-3-ium iodide] | 
 | 1000 | CN(C)c1ccc(/C=C/c2sc3ccc(F)cc3[n+]2C)cc1 [Example 14, (E)-2-[2-(4-Dimethylaminophenyl)vinyl]-5-fluoro-3-methylbenzothiazol-3-ium iodide] | 
 | > 100000 | CN(C)c1ccc(/C=C/c2nc3ccccc3s2)cc1 [Example 2, (E)-{4-[2-(Benzothiazol-2-yl)vinyl]phenyl}dimethylamine] | 
 | 93 | CCCCCCC[n+]1c(/C=C/c2ccc(N(C)C)cc2)sc2ccccc21 [Example 12, (E)-2-[2-(4-Dimethylaminophenyl)vinyl]-3-heptylbenzothiazol-3-ium iodide] | 
 | 1000 | CN(C)c1ccc(/C=C/c2sc3ccccc3[n+]2C)cc1 [Example 9, (E)-2-[2-(4-Dimethylaminophenyl)vinyl]-3-methylbenzothiazol-3-ium iodide] | 
